Where two headings read alike, the source gives them in different places.
Key:
[1] = system: STAT5b-GyrB fusion proteins
Procedure: To evaluate the effectiveness of the analogs of the present invention to act as chemical dimerizers of chimeric proteins, a BAF cell proliferation assay was performed.
BAF Cell Proliferation Assay
We have transfected BAF Cells with the human IL2 Receptor β chain. These transfected cells respond to human IL-2 by increasing their rate of cellular proliferation. This can be assayed by measuring the amount of tritiated thymidine that these cells incorporate into their DNA. One of the signaling proteins activated by IL-2 is the transcription factor STAT5b. This activation of STAT5b is responsible, in part, for the growth-promoting effects of IL-2.
STAT5b is activated by dimerization, an event that is dependent on its phosphorylation and which requires interaction of STAT5b with a ligand bound activated receptor. We can mimic this activation of STAT5b by transfecting BAF cells with a fusion protein consisting of the GyrB domain (the24 kDa amino-terminal fragment of bacterial DNA gyrase, amino acids 2-220) fused to the carboxy-terminus of STAT5b. Addition of the symmetrically dimeric antibiotic coumermycin artificially forces the dimerization of STAT5b-GyrB fusion proteins and results in an increased rate of cell growth that can be measured by the cell's ability to incorporate thymidine. This provides an assay to determine the ability of coumermycin analogs to promote dimerization of STAT5b-GyrB fusion proteins.
The assay is run as follows: BAF cells transfected with the human IL-2 receptor β chain and STAT5b-GyrB are washed twice in phosphate-buffered saline. They are then re-suspended in BAF cell media that lacks IL-2 and placed in a 96-well plate. Increasing amounts of coumermycin, or coumermycin analogs are then added to different wells in a 96-well plate and the cells are incubated overnight. Twenty-four hours later the cell media is spiked with tritiated thymidine and the cells are incubated for an additional 16 hours. The cells are subsequently harvested with a Wallac cell harvester and the amount of tritiated thymidine incorporated is measured using a β scintillation counter.
Set up for BAF proliferation assay was as follows: Spin down cells and wash one time in PBS. Resuspended in BAF cell media without cytokine at 2×10^5 cells/ml. added 100 μl/well or 2×10^4 cells. The compounds were prepared at 2 mg/ml (equivalent to 1.8 nM±5%). Plates were set up so that each condition equaled 1 row of 12 (n=number of wells/row=12). DMSO being utilized as an initial control Compound 5 was prepared in concentrations of 1.6, 16, 163, 450, and 900 nM, and 1.8 μM in DMSO, and as a second control, IL-2 growth factor was added to coumermycin. Two novenamine anologs, Comparative Compounds (CCmpd) 1 and 2, below were also use in this example as control.
The compounds were re-suspended in dimethylsulfoxide (DMSO) at a concentration of 2 mg/ml. […] Next, the cells were washed 2 times with PBS. The re-suspended cells were present at a concentration of 1×10^5 cells /ml in BAF media (RPMI, 10% FCS (fetal calf serum), 1% NEAA (non-essential amino acid), 1% L-G-lu, P/S and Hepes) without IL-2, added 100 μl to well (equal to 1×10^4 cells/well).
The compounds were prepared in as follows: DMSO was used as a control; each of the 5 compounds were combined with DMSO at concentrations of 1.8 μM, 900 nM, 450 nM, 90 nM 9 nM, and 900 nM. As a second control, coumermycin in IL-2 was utilized. Each solution at the aforementioned concentration condition, along with BAF cells, was placed in 1 row (12 wells) of a 96 well plate. Thereafter, 100 μL of compound (twice the concentration) was added to the wells.

[2] = system: STAT5b-GyrB fusion proteins; assay: Inhibition assay in BAF cells, all wells with 90 nM coumermycin; type: cell-based, murine; set-up: unit not given here; conditions: Table 6
Procedure: An inhibition assay was also conducted for Compounds 1 and 2. For this assay, all wells contained a DMSO concentration of 90 nM of coumermycin. Compounds 1 and 2 were added at concentrations of 1.8 μM, 900 nM, 90 nM and 9 nM. The conditions of the assay were identical to those referenced early in this example, except that one-third of the amount of 3-H thymidine was used.

[3] = Table 2, Example 1, stimulus 1.6 nM, 2×10^4 cells/well
[4] = Table 2, Example 1, stimulus 16.3 nM
[5] = Table 2, Example 1, stimulus 163 nM
[6] = Table 2, Example 1, stimulus 450 nM
[7] = Table 2, Example 1, stimulus 900 nM
[8] = Table 2, Example 1, stimulus 1.8 μM
[9] = Cou. 90 nM plus inhibitor 90 nM
[10] = Cou. 90 nM plus inhibitor 900 nM
[11] = Cou. 90 nM plus inhibitor 1800 nM
[12] = Table 3, Example 2, 900 pM, 1×10^4 cells/well

| SMILES | Prolif. [1, 3] | Prolif. [1, 4] | Prolif. [1, 5] | Prolif. [1, 6] | Prolif. [1, 7] | Prolif. [1, 8] | Prolif. (cpm) ([1]; Table 7, Example 5, 900 pM) | Prolif. (cpm) ([1]; Table 7, Example 5, 9 nM) | Prolif. (cpm) ([1]; Table 7, Example 5, 90 nM) | Prolif. (cpm) ([1]; Table 7, Example 5, 450 nM) | Prolif. (cpm) ([1]; Table 7, Example 5, 900 nM) | Prolif. (cpm) ([1]; Table 7, Example 5, 1.8 μM) | Prolif. (cpm) [1, 12] | Prolif. (cpm) ([1]; Table 3, Example 2, 9 nM) | Prolif. (cpm) ([1]; Table 3, Example 2, 90 nM) | Prolif. (cpm) ([1]; Table 3, Example 2, 450 nM) | Prolif. (cpm) ([1]; Table 3, Example 2, 900 nM) | Prolif. (cpm) ([1]; Table 3, Example 2, 1.8 μM) | further results |
| --- | --- | --- | --- | --- | --- | --- | --- | --- | --- | --- | --- | --- | --- | --- | --- | --- | --- | --- | --- |
| COC1C(OC(N)=O)C(O)C(Oc2ccc3c(O)c(NC(=O)COCCOCC(=O)Nc4c(O)c5ccc(OC6OC(C)(C)C(OC)C(OC(N)=O)C6O)c(C)c5oc4=O)c(=O)oc3c2C)OC1(C)C (stereo not drawn) [CCmpd 1, reference compound] | 15741 | 14691 | 13628 | 12465 | 11935 | 11057 |  |  |  |  |  |  |  |  |  |  |  |  |  |
| COC1C(OC(N)=O)C(O)C(Oc2ccc3c(O)c(NC(=O)COCCOCCOCC(=O)Nc4c(O)c5ccc(OC6OC(C)(C)C(OC)C(OC(N)=O)C6O)c(C)c5oc4=O)c(=O)oc3c2C)OC1(C)C (stereo not drawn) [CCmpd 2, reference compound] | 14761 | 14459 | 14516 | 13568 | 12281 | 11676 |  |  |  |  |  |  |  |  |  |  |  |  |  |
| COC1C(OC(N)=O)C(O)C(Oc2ccc3c(O)c(NC(=O)c4cc(=O)cc(C(=O)Nc5c(O)c6ccc(OC7OC(C)(C)C(OC)C(OC(N)=O)C7O)c(C)c6oc5=O)o4)c(=O)oc3c2C)OC1(C)C (stereo not drawn) [CCmpd 3, reference compound] |  |  |  |  |  |  | 32299 cpm | 33921 cpm | 33671 cpm | 33712 cpm | 31968 cpm | 28434 cpm |  |  |  |  |  |  |  |
| COC1C(OC(N)=O)C(O)C(Oc2ccc3c(O)c(NC(=O)c4ccc(Oc5ccc(C(=O)Nc6c(O)c7ccc(OC8OC(C)(C)C(OC)C(OC(N)=O)C8O)c(C)c7oc6=O)cc5)cc4)c(=O)oc3c2C)OC1(C)C (stereo not drawn) [CCmpd 4, reference compound] |  |  |  |  |  |  | 35624 cpm | 35985 cpm | 36764 cpm | 36763 cpm | 35379 cpm | 31918 cpm |  |  |  |  |  |  |  |
| COC1C(OC(=O)c2ccc(C)[nH]2)C(O)C(Oc2ccc3c(O)c(NC(=O)c4cc(=O)cc(C(=O)Nc5c(O)c6ccc(OC7OC(C)(C)C(OC)C(OC(=O)c8ccc(C)[nH]8)C7O)c(C)c6oc5=O)o4)c(=O)oc3c2C)OC1(C)C (stereo not drawn) [Cmpd 1] |  |  |  |  |  |  | 31865 cpm | 34279 cpm | 33933 cpm | 35212 cpm | 33301 cpm | 31029 cpm |  |  |  |  |  |  | Prolif. ([2]; Cou. 90 nM plus inhibitor 9 nM): 7713; Prolif. [2, 9]: 7683; Prolif. [2, 10]: 7597; Prolif. [2, 11]: 7271; Prolif. ([1]; Table 4, Example 3, 900 pM): 7156; Prolif. ([1]; Table 4, Example 3, 9 nM): 7653; Prolif. ([1]; Table 4, Example 3, 90 nM): 7487; Prolif. ([1]; Table 4, Example 3, 450 nM): 7209; Prolif. ([1]; Table 4, Example 3, 900 nM): 7092; Prolif. ([1]; Table 4, Example 3, 1.8 μM): 6397 |
| COC1C(OC(=O)c2ccc(C)[nH]2)C(O)C(Oc2ccc3c(O)c(NC(=O)c4ccc(Oc5ccc(C(=O)Nc6c(O)c7ccc(OC8OC(C)(C)C(OC)C(OC(=O)c9ccc(C)[nH]9)C8O)c(C)c7oc6=O)cc5)cc4)c(=O)oc3c2C)OC1(C)C (stereo not drawn) [Cmpd 2] |  |  |  |  |  |  | 36052 cpm | 38236 cpm | 42674 cpm | 47023 cpm | 46989 cpm | 46345 cpm |  |  |  |  |  |  | Prolif. ([2]; Cou. 90 nM plus inhibitor 9 nM): 7654; Prolif. [2, 9]: 7316; Prolif. [2, 10]: 8068; Prolif. [2, 11]: 8165; Prolif. (cpm) ([1]; Table 5, Example 4, 900 pM): 6014 cpm; Prolif. (cpm) ([1]; Table 5, Example 4, 9 nM): 6031 cpm; Prolif. (cpm) ([1]; Table 5, Example 4, 90 nM): 6623 cpm; Prolif. (cpm) ([1]; Table 5, Example 4, 450 nM): 7513 cpm; Prolif. (cpm) ([1]; Table 5, Example 4, 900 nM): 7798 cpm; Prolif. (cpm) ([1]; Table 5, Example 4, 1.8 μM): 7825 cpm |
| COC1C(OC(=O)c2ccc(C)[nH]2)C(O)C(Oc2ccc3c(O)c(NC(=O)c4ccc(C(=O)Nc5c(O)c6ccc(OC7OC(C)(C)C(OC)C(OC(=O)c8ccc(C)[nH]8)C7O)c(C)c6oc5=O)nc4)c(=O)oc3c2C)OC1(C)C (stereo not drawn) [Cmpd 3] |  |  |  |  |  |  |  |  |  |  |  |  | 16313 cpm | 16767 cpm | 19920 cpm | 22221 cpm | 22824 cpm | 21389 cpm |  |
| COC1C(OC(=O)c2ccc(C)[nH]2)C(O)C(Oc2ccc3c(O)c(NC(=O)c4cncc(C(=O)Nc5c(O)c6ccc(OC7OC(C)(C)C(OC)C(OC(=O)c8ccc(C)[nH]8)C7O)c(C)c6oc5=O)c4)c(=O)oc3c2C)OC1(C)C (stereo not drawn) [Cmpd 4] |  |  |  |  |  |  |  |  |  |  |  |  | 20204 cpm | 19290 cpm | 19731 cpm | 20726 cpm | 22817 cpm | 23135 cpm |  |
| COC1C(OC(=O)c2ccc(C)[nH]2)C(O)C(Oc2ccc3c(O)c(NC(=O)COCCOCCOCC(=O)Nc4c(O)c5ccc(OC6OC(C)(C)C(OC)C(OC(=O)c7ccc(C)[nH]7)C6O)c(C)c5oc4=O)c(=O)oc3c2C)OC1(C)C (stereo not drawn) [Cmpd 5] | 15270 | 14277 | 14139 | 12732 | 12315 | 11751 |  |  |  |  |  |  |  |  |  |  |  |  |  |
| COC1C(OC(=O)c2ccc(C)[nH]2)C(O)C(Oc2ccc3c(O)c(NC(=O)COCCOCC(=O)Nc4c(O)c5ccc(OC6OC(C)(C)C(OC)C(OC(=O)c7ccc(C)[nH]7)C6O)c(C)c5oc4=O)c(=O)oc3c2C)OC1(C)C (stereo not drawn) [Cmpd 6] | 14954 | 14710 | 13351 | 12190 | 12872 | 10832 |  |  |  |  |  |  |  |  |  |  |  |  |  |
| COC1C(OC(=O)c2ccc(C)[nH]2)C(O)C(Oc2ccc3c(O)c(NC(=O)c4cc(C(=O)Nc5c(O)c6ccc(OC7OC(C)(C)C(OC)C(OC(=O)c8ccc(C)[nH]8)C7O)c(C)c6oc5=O)[nH]n4)c(=O)oc3c2C)OC1(C)C (stereo not drawn) [Cmpd 7] |  |  |  |  |  |  |  |  |  |  |  |  | 16520 cpm | 16599 cpm | 17690 cpm | 20553 cpm | 20619 cpm | 20207 cpm |  |
| COC1C(OC(=O)c2ccc(C)[nH]2)C(O)C(Oc2ccc3c(O)c(NC(=O)c4ccc(C(=O)Nc5c(O)c6ccc(OC7OC(C)(C)C(OC)C(OC(=O)c8ccc(C)[nH]8)C7O)c(C)c6oc5=O)cc4)c(=O)oc3c2C)OC1(C)C (stereo not drawn) [Cmpd 8] |  |  |  |  |  |  |  |  |  |  |  |  | 17973 cpm | 19377 cpm | 20715 cpm | 22936 cpm | 23858 cpm | 22772 cpm |  |
| COC1C(OC(=O)c2ccc(C)[nH]2)C(O)C(Oc2ccc3c(O)c(NC(=O)c4ccc(C(=O)Nc5c(O)c6ccc(OC7OC(C)(C)C(OC)C(OC(=O)c8ccc(C)[nH]8)C7O)c(C)c6oc5=O)s4)c(=O)oc3c2C)OC1(C)C (stereo not drawn) [Cmpd 9] |  |  |  |  |  |  |  |  |  |  |  |  | 16826 cpm | 18126 cpm | 19177 cpm | 20889 cpm | 22210 cpm | 20367 cpm |  |
| COC1C(OC(=O)c2ccc(C)[nH]2)C(O)C(Oc2ccc3c(O)c(NC(=O)c4c[nH]c(C(=O)Nc5c(O)c6ccc(OC7OC(C)(C)C(OC)C(OC(=O)c8ccc(C)[nH]8)C7O)c(C)c6oc5=O)c4C)c(=O)oc3c2C)OC1(C)C (stereo not drawn) [Cou., coumermycin] | 16137 | 16261 | 16836 | 18842 | 21057 | 23199 | 36503 cpm | 44455 cpm | 51248 cpm | 60293 cpm | 64831 cpm | 68728 cpm | 18071 cpm | 20551 cpm | 25219 cpm | 27515 cpm | 30752 cpm | 30664 cpm | Prolif. ([2]; Cou. 90 nM with DMSO in place of inhibitor): 7595; Prolif. ([1]; Table 4, Example 3, 900 pM): 7422; Prolif. ([1]; Table 4, Example 3, 9 nM): 8792; Prolif. ([1]; Table 4, Example 3, 90 nM): 9860; Prolif. ([1]; Table 4, Example 3, 450 nM): 10832; Prolif. ([1]; Table 4, Example 3, 900 nM): 11470; Prolif. ([1]; Table 4, Example 3, 1.8 μM): 12308; Prolif. (cpm) ([1]; Table 5, Example 4, 900 pM): 6063 cpm; Prolif. (cpm) ([1]; Table 5, Example 4, 9 nM): 6750 cpm; Prolif. (cpm) ([1]; Table 5, Example 4, 90 nM): 7595 cpm; Prolif. (cpm) ([1]; Table 5, Example 4, 450 nM): 8457 cpm; Prolif. (cpm) ([1]; Table 5, Example 4, 900 nM): 8636 cpm; Prolif. (cpm) ([1]; Table 5, Example 4, 1.8 μM): 8610 cpm |
